From patent US4585784A, “Pyrrole-2-acetylamino acid derivative compounds” (McNeilab, Inc., priority 1983, dated 1986)

system: not listed separately; experiment: rat adjuvant arthritis test (antiinflammatory activity); type: in vivo, Female Wistar/Lewis rats; details: 96 h, oral, daily for 4 days, inhibition of noninjected hind paw volume vs controls, compounds given as aqueous solutions of sodium salts, read-out: ED50
Procedure: The antiinflammatory activity of the compounds of the instant invention was measured using the rat adjuvant arthritis test [S. Wong, J. F. Gardocki and T. P. Pruss, J. Pharmacol. and Exp. Ther. 185, 127 (1973)]. Female Wistar/Lewis rats were given an injection of heat-killed Mycobacterium butyricum in light mineral oil. After 11 days, the animals which had developed an arthritic condition were selected and given daily oral doses of test drug for 4 days. Paw volumes were measured and the percent inhibition of the noninjected hind paw as compared to controls was calculated. The results (Table I) are expressed as ED50 (mg/kg/day).

Point of comparison: Cc1cc(CC(=O)N[C@@H](CCC(N)=O)C(=O)O)n(C)c1C(=O)c1ccc(Cl)cc1 [XI, N-{[5-(4-chlorobenzoyl)-1,4-dimethyl-1H-pyrrol-2-yl]-acetyl}-glutamine], ED50 0.72 mg/kg. Against it:
- Cc1cc(CC(=O)NC(C)C(=O)O)n(C)c1C(=O)c1ccc(Cl)cc1 (centres unmarked) [VIII (1), N--{[5-(4-chlorobenzoyl)-1,4-dimethyl-1H--pyrrol-2-yl]-acetyl}-alanine] — within 1.5-fold, 0.67 mg/kg
- Cc1cc(CC(=O)NCC(=O)O)n(C)c1C(=O)c1ccc(Cl)cc1 [Example VII, N-{[5-(4-chlorobenzoyl)-1,4-dimethyl-1H-pyrrol-2-yl]-acetyl}-glycine] — within 1.5-fold, 0.61 mg/kg
- Cc1cc(CC(=O)NC(CCCCN)C(=O)O)n(C)c1C(=O)c1ccc(Cl)cc1 (centres unmarked) [X, N^2 -{[5-(4-chlorobenzoyl)-1,4-dimethyl-1H-pyrrol-2-yl]-acetyl}-lysine-hydrate(5:8)] — within 1.5-fold, 0.64 mg/kg
- Cc1cc(CC(=O)NC(CC(=O)O)C(=O)O)n(C)c1C(=O)c1ccc(Cl)cc1 (centres unmarked) [VIII (4), N--{[5-(4-chlorobenzoyl)-1,4-dimethyl-1H--pyrrol-2-yl]-acetyl}-aspartic acid] — within 1.5-fold, 0.76 mg/kg
- Cc1cc(CC(=O)O)n(C)c1C(=O)c1ccc(Cl)cc1 [zomepirac, [5-(4-chlorobenzoyl)-1,4-dimethyl-1H-pyrrol-2-yl]acetic acid, reference compound] — within 1.5-fold, 0.51 mg/kg
- CSCCC(NC(=O)Cc1cc(C)c(C(=O)c2ccc(Cl)cc2)n1C)C(=O)O (centres unmarked) [VIII (2), N--{[5-(4-chlorobenzoyl)-1,4-dimethyl-1H--pyrrol-2-yl]-acetyl}-methionine] — within 1.5-fold, 0.93 mg/kg

same assay, conditions: oral, daily for 4 days, inhibition of noninjected hind paw volume vs controls, compounds given as aqueous solutions of sodium salts

For Cc1cc(CC(=O)N[C@@H](CCC(=O)O)C(=O)O)n(C)c1C(=O)c1ccc(Cl)cc1 [VIII (3), N--{[5-(4-chlorobenzoyl)-1,4-dimethyl-1H--pyrrol-2-yl]-acetyl}-glutamic acid], the ED50 was 0.54 mg/kg/day.

system: not listed separately; experiment: gastric ulceration test (ability to induce gastric ulceration, 4 days oral dosing); details: in vivo
Procedure: In addition to their antiinflammatory activity, the compounds were evaluated for their ability to induce gastric ulceration since gastric irritation is the most significant side effect following administration of prostaglandin biosynthesis inhibitors. As described by Wong et al., the dose (UD50 mg/kg/day) required to produce 50 percent ulcerogenic response following 4 days of oral dosing with test drug was determined. The results are shown in Table I. As described by Wong et al., a therapeutic index in respect to gastric ulceration, the "antiinflammatory index (AII)" defined as UD50 /ED50, was determined.

Point of comparison: Cc1cc(CC(=O)NC(CCCCN)C(=O)O)n(C)c1C(=O)c1ccc(Cl)cc1 (centres unmarked) [X, N^2 -{[5-(4-chlorobenzoyl)-1,4-dimethyl-1H-pyrrol-2-yl]-acetyl}-lysine-hydrate(5:8)], TD50 at 96 h 35.1 mg/kg. Against it:
- Cc1cc(CC(=O)NC(C)C(=O)O)n(C)c1C(=O)c1ccc(Cl)cc1 (centres unmarked) [VIII (1), N--{[5-(4-chlorobenzoyl)-1,4-dimethyl-1H--pyrrol-2-yl]-acetyl}-alanine] — within 1.5-fold, 25.4 mg/kg
- Cc1cc(CC(=O)NCC(=O)O)n(C)c1C(=O)c1ccc(Cl)cc1 [Example VII, N-{[5-(4-chlorobenzoyl)-1,4-dimethyl-1H-pyrrol-2-yl]-acetyl}-glycine] — 1.7-fold lower, 21.1 mg/kg
- Cc1cc(CC(=O)N[C@@H](CCC(N)=O)C(=O)O)n(C)c1C(=O)c1ccc(Cl)cc1 [XI, N-{[5-(4-chlorobenzoyl)-1,4-dimethyl-1H-pyrrol-2-yl]-acetyl}-glutamine] — within 1.5-fold, 33.4 mg/kg
- Cc1cc(CC(=O)NC(CC(=O)O)C(=O)O)n(C)c1C(=O)c1ccc(Cl)cc1 (centres unmarked) [VIII (4), N--{[5-(4-chlorobenzoyl)-1,4-dimethyl-1H--pyrrol-2-yl]-acetyl}-aspartic acid] — 2-fold higher, 71 mg/kg
- Cc1cc(CC(=O)O)n(C)c1C(=O)c1ccc(Cl)cc1 [zomepirac, [5-(4-chlorobenzoyl)-1,4-dimethyl-1H-pyrrol-2-yl]acetic acid, reference compound] — 2.5-fold lower, 13.8 mg/kg
- CSCCC(NC(=O)Cc1cc(C)c(C(=O)c2ccc(Cl)cc2)n1C)C(=O)O (centres unmarked) [VIII (2), N--{[5-(4-chlorobenzoyl)-1,4-dimethyl-1H--pyrrol-2-yl]-acetyl}-methionine] — within 1.5-fold, 43.7 mg/kg

In the case of Cc1cc(CC(=O)N[C@@H](CCC(=O)O)C(=O)O)n(C)c1C(=O)c1ccc(Cl)cc1 [VIII (3), N--{[5-(4-chlorobenzoyl)-1,4-dimethyl-1H--pyrrol-2-yl]-acetyl}-glutamic acid], the “AII (antiinflammatory index, UD50/ED50)” value is reported as 68.9.

same assay, conditions: in vivo, 96 h

In the case of Cc1cc(CC(=O)N[C@@H](CCC(=O)O)C(=O)O)n(C)c1C(=O)c1ccc(Cl)cc1 [VIII (3), N--{[5-(4-chlorobenzoyl)-1,4-dimethyl-1H--pyrrol-2-yl]-acetyl}-glutamic acid], the UD50 is reported as 37.0 mg/kg/day.

same assay, conditions: in vivo, therapeutic index in respect to gastric ulceration, * = significantly different from parent compound p ≤0.05, read-out: AII (antiinflammatory index, UD50/ED50)

Point of comparison: Cc1cc(CC(=O)NCC(=O)O)n(C)c1C(=O)c1ccc(Cl)cc1 [Example VII, N-{[5-(4-chlorobenzoyl)-1,4-dimethyl-1H-pyrrol-2-yl]-acetyl}-glycine], selectivity ratio 34.4. Against it:
- Cc1cc(CC(=O)NC(C)C(=O)O)n(C)c1C(=O)c1ccc(Cl)cc1 (centres unmarked) [VIII (1), N--{[5-(4-chlorobenzoyl)-1,4-dimethyl-1H--pyrrol-2-yl]-acetyl}-alanine] — higher, 37.6
- Cc1cc(CC(=O)N[C@@H](CCC(N)=O)C(=O)O)n(C)c1C(=O)c1ccc(Cl)cc1 [XI, N-{[5-(4-chlorobenzoyl)-1,4-dimethyl-1H-pyrrol-2-yl]-acetyl}-glutamine] — higher, 46.5
- Cc1cc(CC(=O)NC(CCCCN)C(=O)O)n(C)c1C(=O)c1ccc(Cl)cc1 (centres unmarked) [X, N^2 -{[5-(4-chlorobenzoyl)-1,4-dimethyl-1H-pyrrol-2-yl]-acetyl}-lysine-hydrate(5:8)] — higher, 54.8
- Cc1cc(CC(=O)NC(CC(=O)O)C(=O)O)n(C)c1C(=O)c1ccc(Cl)cc1 (centres unmarked) [VIII (4), N--{[5-(4-chlorobenzoyl)-1,4-dimethyl-1H--pyrrol-2-yl]-acetyl}-aspartic acid] — higher, 93.1
- Cc1cc(CC(=O)O)n(C)c1C(=O)c1ccc(Cl)cc1 [zomepirac, [5-(4-chlorobenzoyl)-1,4-dimethyl-1H-pyrrol-2-yl]acetic acid, reference compound] — lower, 27.2
- CSCCC(NC(=O)Cc1cc(C)c(C(=O)c2ccc(Cl)cc2)n1C)C(=O)O (centres unmarked) [VIII (2), N--{[5-(4-chlorobenzoyl)-1,4-dimethyl-1H--pyrrol-2-yl]-acetyl}-methionine] — higher, 46.9

system: prostaglandin biosynthesis; experiment: not given; details: cited from earlier work

For Cc1cc(CC(=O)O)n(C)c1C(=O)c1ccc(Cl)cc1 [zomepirac, [5-(4-chlorobenzoyl)-1,4-dimethyl-1H-pyrrol-2-yl]acetic acid, reference compound], the “mode of action (in words)” value is listed as “inhibition of prostaglandin biosynthesis”.

system: not given; experiment: not given; details: in vivo; cited from earlier work

In the case of Cc1cc(CC(=O)O)n(C)c1C(=O)c1ccc(Cl)cc1 [zomepirac, [5-(4-chlorobenzoyl)-1,4-dimethyl-1H-pyrrol-2-yl]acetic acid, reference compound], the “side effect (in words)” value is given as “gastrointestinal irritation”.
